Assay results reported in PubChem BioAssay (NCI).
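Method: 48-hour compound exposure of cells in 96-well plates, five concentrations, linear interpolation of endpoints. At the TGI there is no net growth.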

Columns and labels:
Assay in all cases: DTP human tumour cell line panel, 48 h
KM12 colon = tested on: KM12 colon
SW-620 colon = tested on: SW-620 colon
SN12C renal = tested on: SN12C renal
IGROV1 ovarian = tested on: IGROV1 ovarian
OVCAR-5 ovarian = tested on: OVCAR-5 ovarian
A549 NSCLC = tested on: A549 NSCLC
K-562 leukemia = tested on: K-562 leukemia
CAKI-1 renal = tested on: CAKI-1 renal
HL-60(TB) leukemia = tested on: HL-60(TB) leukemia
MDA-MB-231 breast = tested on: MDA-MB-231 breast
HS 578T breast = tested on: HS 578T breast
EKVX NSCLC = tested on: EKVX NSCLC
A498 renal = tested on: A498 renal
M14 melanoma = tested on: M14 melanoma
RXF 393 renal = tested on: RXF 393 renal
SNB-75 CNS = tested on: SNB-75 CNS
SK-OV-3 ovarian = tested on: SK-OV-3 ovarian
NCI-H23 lung = tested on: NCI-H23 lung
NCI/ADR-RES ovarian = tested on: NCI/ADR-RES ovarian
HOP-62 NSCLC = tested on: HOP-62 NSCLC
MDA-MB-435 = tested on: MDA-MB-435
NCI-H460 lung = tested on: NCI-H460 lung
MOLT-4 leukemia = tested on: MOLT-4 leukemia
CCRF-CEM leukemia = tested on: CCRF-CEM leukemia
RPMI-8226 leukemia = tested on: RPMI-8226 leukemia
NCI-H226 lung = tested on: NCI-H226 lung
SF-539 CNS = tested on: SF-539 CNS
ACHN renal = tested on: ACHN renal
TK-10 renal = tested on: TK-10 renal
786-0 renal = tested on: 786-0 renal
HOP-92 NSCLC = tested on: HOP-92 NSCLC
COLO 205 colon = tested on: COLO 205 colon
PC-3 prostate = tested on: PC-3 prostate
SF-295 CNS = tested on: SF-295 CNS
OVCAR-4 ovarian = tested on: OVCAR-4 ovarian
SR leukemia = tested on: SR leukemia
LOX IMVI melanoma = tested on: LOX IMVI melanoma
BT-549 breast = tested on: BT-549 breast
T-47D breast = tested on: T-47D breast
OVCAR-8 ovarian = tested on: OVCAR-8 ovarian
HT29 colon = tested on: HT29 colon
HCC-2998 colon = tested on: HCC-2998 colon
UACC-257 melanoma = tested on: UACC-257 melanoma
MALME-3M melanoma = tested on: MALME-3M melanoma
SF-268 CNS = tested on: SF-268 CNS
SK-MEL-28 melanoma = tested on: SK-MEL-28 melanoma
SNB-19 CNS = tested on: SNB-19 CNS
SK-MEL-2 melanoma = tested on: SK-MEL-2 melanoma
UO-31 renal = tested on: UO-31 renal
HCT-15 colon = tested on: HCT-15 colon
UACC-62 melanoma = tested on: UACC-62 melanoma
HCT-116 colon = tested on: HCT-116 colon
U251 CNS = tested on: U251 CNS
SK-MEL-5 melanoma = tested on: SK-MEL-5 melanoma
MCF7 breast = tested on: MCF7 breast
OVCAR-3 ovarian = tested on: OVCAR-3 ovarian
DU-145 prostate = tested on: DU-145 prostate

Measured: TGI

CSc1ncc2c(C#N)c3n(C)c4ccccc4n3c(=O)c2n1
> 100 µM: all assays above
